Earlier results as cited in patent US20050118222A1, “Product to combat ticks and the process for the product's preparation” (priority 2002, published 2005).

Key:
[1] = tested on: manure-processing insect and coleopterous flora in the soil
[2] = in vivo

Substance: (4″R)-4″-epi(Acetylamino)-4″-deoxyavermectin B1 [Eprinomectin]
- applied drug eliminated through the milk (in vivo): 0.1%
- elimination through the milk, times less compared to ivermectin or moxidectin (versus ivermectin or moxidectin): 50 times
- effect on manure-processing insect and coleopterous flora in the soil [1]: does not affect
- elimination through dung [2]: 85%
